Reference: PubChem BioAssay AID179 (DTP/NCI, 2004)
Where “and” joins values, the source holds several entries; their conditions need not be identical. Identical values can stand only once. Calls of active or inactive are those of the source.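 How the source made its calls: active means compounds giving half or more protection of infected cells from virus-caused growth loss, again on retest; inactive means the rest.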 Where a SMILES comes first, the peptide text is derived from it. The star is where a group is joined. Boc = CC(C)(C)OC(=O)*; Bn = c1ccc(C*)cc1

Test system: CEM cells HIV-1 protection, formazan growth assay
Assay: NCI AIDS Antiviral Assay
Conditions: for IC50: measured here: growth of uninfected CEM cells
How it was run: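 CEM (human) cells, HIV-1 infected vs uninfected, 5-point dosing, formazan growth read-out. Retest threshold 50% protection.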

| SMILES | EC50 | IC50 | outcome |
| --- | --- | --- | --- |
| C=CCC1NCCC2=C1C(S(=O)(=O)c1ccc(C)cc1)c1ccccc12 (stereo not given) | > 200 µM | 10.5 µM |  |
| COC[C@H]1c2cc(O)c(OCc3ccccc3)cc2O[C@@H]1c1ccc(OC)cc1 | > 200 µM | 19.5 µM |  |
| Cc1c2c(n3c(nc4ccccc43)c1C#N)SCC2 | > 200 µM | > 200 µM |  |
| CNC(=O)C(CC(C)C)NC(=O)C(C)NC(=O)C(Cc1ccc(OCc2ccccc2)cc1)NC(=O)C(COCc1ccccc1)NC(=O)OC(C)(C)C (stereo not given) (Boc-S(Bn)Y(Bn)AL-NHMe; configuration not given here) | > 200 µM | 9.55 µM and 13.5 µM |  |
| CN1CC[C@]2(C)c3ccc(O)cc3CC3CCCC1C32C (stereo not given in full) |  |  | inactive |
| COC(=O)c1cc(C(=Cc2c(F)c(F)c(F)c(F)c2F)c2cc(Cl)c(OC)c(C(=O)OC)c2)cc(Cl)c1OC | > 17.4 µM | > 17.4 µM |  |
| C/C(O)=C(\N=O)C(=O)NCCc1ccccc1 | > 288 µM | > 288 µM |  |
| Cn1ccnc1CCc1ccc(Cl)c(Cl)c1 | > 851 µM | 97.7 µM |  |
| c1ccc(SCCP(CCP(c2ccccc2)c2ccccc2)c2ccccc2)cc1 (stereo not given) | > 21.9 µM | 0.355 µM |  |
| CCOC(=O)c1sc(SSc2sc(C(=O)OCC)c(C)c2[N+](=O)[O-])c([N+](=O)[O-])c1C | > 200 µM | 138 µM |  |
| Nc1cccc(C#Cc2cccc(C#Cc3cccc(N)n3)n2)n1 | > 200 µM | 75.9 µM |  |
| Cc1cccc(Cl)c1NC(N)=S | > 36.3 µM | > 36.3 µM |  |
| C[C@]12CC[C@H](O)CC1=CC[C@@H]1C2CC[C@@]2(C)C1CC[C@@H]2c1ncc(-c2ccccc2)s1 (stereo not given in full) | > 11.5 µM | > 11.5 µM |  |
| Cc1ccc(/C=C2/N=C(N/N=C\C(O)C(O)C(O)C(O)CO)NC2=O)cc1 (stereo not given) | > 200 µM | 123 µM and > 200 µM and 132 µM |  |
| O=C(OCCO)C1CC2CC1C1(C2)OCCO1 (stereo not given) |  |  | inactive |
| S=C(NCCNC(=S)SSC(=S)NNc1ccccc1)SSC(=S)NNc1ccccc1 | > 200 µM | 17.4 µM |  |
| Cc1ccc2c(c1)-c1c3c(nn1C)-c1ccccc1SC3O2 (stereo not given) | > 23.4 µM | > 23.4 µM |  |
| CC1(C)CNC[C@@]2(C)OCCOCCOCCO[C@@]3(C)CNCC(C)(C)NC(=O)[C@](C)(CNCC(C)(C)NC3=O)OCCOCCOCCO[C@](C)(CNCC(C)(C)NC2=O)C(=O)N1 | > 200 µM | > 200 µM |  |
| COc1ccc(CCN(C)C(=O)CC(C#N)(c2ccccc2)c2ccc(OC)c(OC)c2)cc1OC (stereo not given) | > 200 µM | 95.5 µM |  |
| O=C(Nc1nc(=S)[nH][nH]1)C(=O)C1C(=O)Nc2ccccc2S1=O (stereo not given) | > 372 µM | > 372 µM |  |
| CCOC(=O)CCCSCCCC1(CCCSCCCC(=O)OCC)OCCO1 | > 39.8 µM | > 39.8 µM |  |

| SMILES | EC50 | IC50 | outcome |
| --- | --- | --- | --- |
| CC1CN=C(Nc2ccc(S(N)(=O)=O)cc2)S1 (stereo not given) | > 200 µM | 178 µM |  |
| CCOC(=O)C1C(c2ccccc2)C(C(=O)OCC)C(O)(C(F)(F)F)OC1(O)C(F)(F)F (stereo not given) |  |  | inactive |
| C/C(=N/O)c1sc(-c2nc(C)c(/C(C)=N\O)s2)nc1C | > 115 µM | > 115 µM |  |
| CC(C)=Nn1cnc(C(=N)C#N)c1N | > 200 µM | > 200 µM |  |
| COc1cc(C2C(C(=O)Nc3ccccc3)=C(C)NC(C)=C2C(=O)Nc2ccccc2)ccc1O |  |  | inactive |
| O=c1[nH]c(=O)n(C2C=CC(CO)O2)cc1COCC(F)(F)F (stereo not given) | 3.02 µM | 105 µM |  |
| Cc1c(NC(=O)Nc2ccc(F)cc2)c(=O)n(-c2ccccc2)n1C | > 200 µM | > 200 µM |  |
| COc1ccc2c(-c3cc4ccccc4o3)cc(=O)oc2c1 |  |  | inactive |
| CNc1ccc(Cl)cc1S(=O)(=O)c1ccc([N+](=O)[O-])cc1 | > 200 µM | > 200 µM |  |
| CC(=O)Nc1cc(C(=O)Nc2cc(C(=O)Nc3cc(C(=O)Nc4cc(C(=O)Nc5cc(C(=O)NCCC(=O)NCCCN(C)C)n(C)c5)n(C)c4)n(C)c3)n(C)c2)n(C)c1 | > 174 µM | 26.9 µM |  |
| CC1CC(=O)C2CC(CO)=CCCC2C1(C)CC/C(=C/CO)CO (stereo not given) |  |  | inactive |
| CCOC(=O)N1CCC2(CC1)C[C@@](C(C)=O)(c1ccccc1)C(C)O2 (stereo not given in full) | > 200 µM | > 200 µM |  |
| CCOC(=O)CO/N=C\C1=CC(=O)C2CC1C2(C)C (stereo not given) | > 200 µM | > 200 µM |  |
| CC[N+]1(C)CSC(=S)N(C)C1 (stereo not given) | > 200 µM | 75.9 µM |  |
| CC(C)[C@@H]1CC[C@]2(COC(=O)CC(C)(C)CC(=O)O)CC[C@]3(C)[C@H](CC[C@@H]4[C@@]5(C)CC[C@H](OC(=O)CC(C)(C)CC(=O)O)C(C)(C)[C@@H]5CC[C@]43C)[C@@H]12 | > 200 µM | 9.77 µM |  |
| C/C=C/C1C=Cc2ccccc2C1(C)C1=NC(C)(C)CO1 (stereo not given) | > 25.7 µM | > 25.7 µM |  |
| COC(=O)c1c(-c2ccccc2)sc(-c2cccc3ccccc23)c1C(=O)OC |  |  | inactive |
| Nc1cc2nc3ccccc3sc-2cc1=O | 3.39 µM | 60.3 µM |  |
| CC(CCCOC(c1ccccc1)(c1ccccc1)c1ccccc1)OC(=O)Nc1ccccc1 (stereo not given) | > 28.8 µM | > 28.8 µM |  |
| O=c1[nH]nc(Cc2ccccc2)n1Nc1ccccc1 | > 200 µM | > 200 µM |  |
| CCC([NH-])C(=O)O.CCC([NH-])C(=O)O.[Cu+2] (stereo not given) | > 200 µM | 18.2 µM |  |

| SMILES | EC50 | IC50 | outcome |
| --- | --- | --- | --- |
| Nc1c(S(=O)(=O)O)cc2cc(S(=O)(=O)O)ccc2c1N=Nc1ccc(/C=C/c2ccc(N=Nc3c(N)c(S(=O)(=O)O)cc4cc(S(=O)(=O)O)ccc34)cc2S(=O)(=O)O)c(S(=O)(=O)O)c1 | 2.82 µM | 79.4 µM |  |
| CCOC(=O)C1(C(=O)OCC)C[C@H](C)[C@](C)(O)C1 | > 200 µM | > 200 µM |  |
| O=C1C=C(Nc2ccccc2)c2ccccc2C1=O | > 11 µM | > 11 µM |  |
| COC(=O)c1cnn2c1ccc1ccccc12 | > 200 µM | 29.5 µM |  |
| CCOc1ccccc1NC(=O)C(=O)CC(=O)c1c(C)n([O-])c2ccccc2[n+]1=O | > 110 µM | > 110 µM |  |
| CC1(C)OCC(C)(C)C(O)C1=O (stereo not given) | > 1450 µM | 977 µM |  |
| Nc1nc(-c2ccccc2)nc2oc(-c3cccs3)nc12 | > 200 µM | > 200 µM |  |
| O=C1CNS(=O)(=O)N1 | > 1820 µM | > 1820 µM |  |
| CCN(CC(O)COc1ccc2c(c1)[n+]([O-])nc(N)[n+]2[O-])C(C)=O (stereo not given) | > 200 µM | 23.4 µM |  |
| CCOC(=O)/C(=C\c1ccco1)C(C)=O | > 240 µM | > 240 µM |  |
| CC1(C)OCC(COC(=O)C=[N+]=[N-])O1 (stereo not given) | > 200 µM | > 200 µM |  |
| Cc1cc2nncn2c2nnnn12 | > 200 µM | > 200 µM |  |
| COc1ccc(/C=C2\CCC(C)C3C2=NN(c2ccccc2)C3c2ccc(OC)c(OC)c2)cc1OC (stereo not given) | > 200 µM | 5.01 µM |  |
| CC1(C)CC(=O)C2=C(C1)OC(N)=C(c1nc(-c3ccccc3)cs1)C2c1ccc(Br)cc1 (stereo not given) | > 200 µM | 22.9 µM |  |
| CN1C(=O)C(Br)SC1=S (stereo not given) | > 31.6 µM | > 31.6 µM |  |
| COc1cc(-c2[o+]c3cc(O)cc(O)c3cc2O)cc(O)c1O | > 200 µM | 15.1 µM |  |
| CN(C)c1ccc2cc3ccc(N(C)C)cc3nc2c1 | > 200 µM | 0.309 µM |  |
| COC1C(OC(N)=O)C(O)C(Oc2ccc3c(O)c(NC(=O)c4ccc(O)c(CC=C(C)C)c4)c(=O)oc3c2C)OC1(C)C (stereo not given) | > 389 µM | 79.4 µM |  |
| O=C1NC(=O)C(=Cc2ccc(-c3ccccc3)cc2)C(=O)N1 | > 24.5 µM | > 24.5 µM |  |
